In assay [1] the test system is Mycolicibacterium smegmatis. As to the kind of experiment: Antimicrobial activity against Mycobacterium smegmatis MC2 4517 harboring pYUB1062 plasmid overexpressing Mycobacterium tuberculosis Rv0926c unknown gene by broth microdilution method. Format: functional. On the technique in general: Broth dilution looks for growth in wells or tubes with falling amounts of substance.

For assay [2], the system named is Mycolicibacterium smegmatis. As to the kind of experiment: Antimicrobial activity against Mycobacterium smegmatis MC2 4517 harboring pYUB1062 plasmid overexpressing Mycobacterium tuberculosis Rv3777 probable oxidoreductase gene by broth microdilution method. Type of assay: functional.
In assay [3] the test system is Mycolicibacterium smegmatis. As to the kind of experiment: Antimicrobial activity against Mycobacterium smegmatis MC2 4517 harboring pYUB1062 plasmid overexpressing Mycobacterium tuberculosis Rv1996 universal stress protein gene by broth microdilution method. Format: functional.
The subject of assay [4] is Mycolicibacterium smegmatis. Briefly: Antimicrobial activity against Mycobacterium smegmatis MC2 4517 harboring pYUB1062 plasmid overexpressing Mycobacterium tuberculosis Rv0753c MmsA gene by broth microdilution method. Type of assay: functional.
In assay [5] the test system is Mycolicibacterium smegmatis. As to the kind of experiment: Antimicrobial activity against Mycobacterium smegmatis MC2 4517 harboring pYUB1062 plasmid overexpressing Mycobacterium tuberculosis Rv2671 RibD gene by broth microdilution method. Type of assay: functional.
Assay [6] concerns Mycolicibacterium smegmatis. As to the kind of experiment: Antimicrobial activity against Mycobacterium smegmatis MC2 4517 harboring pYUB1062 plasmid overexpressing Mycobacterium tuberculosis Rv1059 unknown gene by broth microdilution method. Type of assay: functional.
The subject of assay [7] is Mycolicibacterium smegmatis. As to the kind of experiment: Antimicrobial activity against Mycobacterium smegmatis MC2 5097 harboring pYUB1062 plasmid overexpressing Mycobacterium tuberculosis Rv2763c DfrA gene by broth microdilution method. Format: functional.
Assay [8] relates to Mycolicibacterium smegmatis. As to the kind of experiment: Antimicrobial activity against Mycobacterium smegmatis MC2 4517 harboring pYUB1062 plasmid overexpressing Mycobacterium tuberculosis Rv2623 universal stress protein gene by broth microdilution method. Format: functional.
The subject of assay [9] is Mycolicibacterium smegmatis. Briefly: Antimicrobial activity against Mycobacterium smegmatis MC2 4517 harboring pYUB1062 plasmid overexpressing Mycobacterium tuberculosis Rv2691 CeoB/TrKA gene by broth microdilution method. Type of assay: functional.
The subject of assay [10] is Mycolicibacterium smegmatis. As to the kind of experiment: Antimicrobial activity against Mycobacterium smegmatis MC2 4517 harboring pYUB1062 plasmid overexpressing Mycobacterium tuberculosis Rv0468 FadB2 gene by broth microdilution method. Type of assay: functional.
The test system of assay [11] is Mycolicibacterium smegmatis. Briefly: Antimicrobial activity against Mycobacterium smegmatis MC2 5089 harboring pYUB1062 plasmid overexpressing Mycobacterium tuberculosis Rv1484 InhA gene by broth microdilution method. Format: functional.
Assay [12] deals with Mycolicibacterium smegmatis. Briefly: Antimicrobial activity against Mycobacterium smegmatis MC2 4517 harboring pYUB1062 plasmid overexpressing Mycobacterium tuberculosis Rv0091 Mtn/Sah gene by broth microdilution method. Type of assay: functional, organism-based.
Assay [13] relates to Mycolicibacterium smegmatis. Briefly: Antimicrobial activity against Mycobacterium smegmatis MC2 4517 harboring pYUB1062 plasmid overexpressing Mycobacterium tuberculosis Rv3248c SahH gene by broth microdilution method. Format: functional.
Assay [14] has as its system Mycolicibacterium smegmatis. Briefly: Antimicrobial activity against Mycobacterium smegmatis MC2 4517 harboring pYUB1062 plasmid overexpressing Mycobacterium tuberculosis Rv2971 probable oxidoreductase gene by broth microdilution method. Format: functional, organism-based.
Assay [15] relates to Mycolicibacterium smegmatis. As to the kind of experiment: Antimicrobial activity against Mycobacterium smegmatis MC2 4517 harboring pYUB1062 plasmid overexpressing Mycobacterium tuberculosis Rv0155 PntAA gene by broth microdilution method. Type of assay: functional.
For assay [16], the system named is Mycolicibacterium smegmatis. Briefly: Antimicrobial activity against Mycobacterium smegmatis MC2 4517 harboring pYUB1062 plasmid overexpressing Mycobacterium tuberculosis Rv2766 FabG5 gene by broth microdilution method. Format: functional.
For assay [17], the system named is Mycolicibacterium smegmatis. Briefly: Antimicrobial activity against Mycobacterium smegmatis MC2 4517 harboring pYUB1062 plasmid overexpressing Mycobacterium tuberculosis Rv1187 RocA gene by broth microdilution method. Format: functional.
Assay [18] relates to Mycolicibacterium smegmatis. As to the kind of experiment: Antimicrobial activity against Mycobacterium smegmatis MC2 4517 harboring pYUB1062 plasmid overexpressing Mycobacterium tuberculosis Rv2858c Aldc gene by broth microdilution method. Type of assay: functional.
Assay [19] concerns Mycobacterium tuberculosis. As to the kind of experiment: Ratio of MIC for Mycobacterium tuberculosis H37RV harboring pMV261::InhA plasmid to MIC for wild-type Mycobacterium tuberculosis H37Rv. Format: functional.
Assay [20] concerns Mycobacterium tuberculosis. Briefly: Antimicrobial activity against Mycobacterium tuberculosis H37Rv harboring pMV261::dfrA plasmid by MTT assay. Format: functional, organism-based. In general terms: Tetrazolium dyes change colour on reduction, which living cells bring about.
The subject of assay [21] is Mycobacterium tuberculosis. As to the kind of experiment: Antimicrobial activity against Mycobacterium tuberculosis H37Rv harboring pMV261::InhA plasmid by MTT assay. Format: functional, organism-based.

Values after ≈ are worked out from the molar mass of the structure shown. Active and inactive are the calls of the source. The calls are words filed in the database; no cut-off is given here.

The values below come from ChEMBL document CHEMBL1671707, “Mycobacterium tuberculosis dihydrofolate reductase is not a target relevant to the antitubercular activity of isoniazid” (Antimicrob Agents Chemother, 2010).

In general, MIC refers to the lowest concentration found to suppress growth. Consider `CCc1cc(C(N)=S)ccn1` [ETHIONAMIDE], for which the MIC in assay [1], in [2], in assay [3], in assay [4], in assay [5] and in assay [6] was 9.4 µg/mL (≈ 56.5 µM) each time. Further, the MIC turned out to be 9.4 µg/mL (≈ 56.5 µM) in assay [7]; 9.4 µg/mL (≈ 56.5 µM) in assay [8]; 9.4 µg/mL (≈ 56.5 µM) in [9]; 9.4 µg/mL (≈ 56.5 µM) in assay [10]; 150 µg/mL (≈ 902 µM) in assay [11]; 9.4 µg/mL (≈ 56.5 µM) in assay [13]. Moreover, the MIC in assay [15], in assay [16], in [17] and in assay [18] was 9.4 µg/mL (≈ 56.5 µM) throughout. Also, the MIC result in assay [12] and in assay [14] was “inactive” each time.

Regarding `NNC(=O)c1ccncc1` [ISONIAZID], the MIC in [1], in assay [2], in [3], in assay [4], in assay [5] and in assay [6] was 4.7 µg/mL (≈ 34.3 µM) in each case. In addition, the minimal inhibitory concentration (MIC) amounted to 4.7 µg/mL (≈ 34.3 µM) in [7]; 4.7 µg/mL (≈ 34.3 µM) in assay [8]; 4.7 µg/mL (≈ 34.3 µM) in assay [9]; 4.7 µg/mL (≈ 34.3 µM) in assay [10]; 300 µg/mL (≈ 2190 µM) in assay [11]; 4.7 µg/mL (≈ 34.3 µM) in [13]. In addition, the MIC in [15], in assay [16], in assay [17] and in [18] was 4.7 µg/mL (≈ 34.3 µM) each time. Moreover, the Ratio in [19] was 20. Further, in [20], the outcome was Active. The MIC entry in assay [12] and in assay [14] was “inactive” each time. The result in assay [21] was inactive.
